# Reference: ChEMBL document CHEMBL1201862, “PubChem BioAssay data set” (2004)
# Active and inactive are the calls of the source.
# Key:
# [1] = tested on: Vero; assay: mammalian cell viability reduction – secondary assay, cytotoxicity control for West Nile virus antiviral project, dose response (AID 1650); type: functional; details: Chlorocebus sabaeus
# [2] = tested on: Vero; assay: inhibition of WNV-induced cytopathic effect – cell-based, CPE readout (AID 1621); type: functional; details: Chlorocebus sabaeus
# [3] = Trypanosoma cruzi growth suppression in host cells – NIH3T3 host cells, beta-gal luminescence, confirmation (AID 2044); type: functional, cell-based;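 also: intracellular parasites grown in NIH/3T3 mouse fibroblasts as host cells; luminescent beta-galactosidase reporter signal from transgenic T. cruzi replicating inside host cells; inhibitors lower the luminescence signal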
# [4] = NIH3T3 cell viability loss – ATP luminescence, mouse fibroblasts, counter-screen, dose response (AID 2010); type: functional, cell-based;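 also: cells exposed to compound for about 90 hours before reading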
# [5] = cells
# [6] = target: Galanin receptor type 2 (Homo sapiens, UniProt O43603); assay: Dose Response cell-based high-throughput screening assay to identify antagonists of galanin receptor 2 (GALR2). [Related pubchem assays: 828, 866 ]; type: functional
# Galanin receptor type 2, sequence (O43603 whole entry): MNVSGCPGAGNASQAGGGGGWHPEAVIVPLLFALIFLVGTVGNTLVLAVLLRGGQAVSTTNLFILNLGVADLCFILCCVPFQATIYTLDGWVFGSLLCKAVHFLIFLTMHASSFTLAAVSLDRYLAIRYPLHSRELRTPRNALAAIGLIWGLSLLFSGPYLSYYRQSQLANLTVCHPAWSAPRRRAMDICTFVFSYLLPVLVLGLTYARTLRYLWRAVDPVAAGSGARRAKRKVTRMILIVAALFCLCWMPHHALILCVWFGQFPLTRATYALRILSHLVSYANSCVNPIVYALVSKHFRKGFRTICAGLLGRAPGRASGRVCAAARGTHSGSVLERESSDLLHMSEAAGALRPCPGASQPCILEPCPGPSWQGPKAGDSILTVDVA
# [7] = tested on: HEK293; assay: cells; details: Homo sapiens
# [8] = tested on: HEK293; assay: cells; details: Homo sapiens; remark: listed apart in the source
structure (smiles),measurement,setting,value
CN(C)CCCNC(=O)c1cc2sc3ccccc3c2s1,CC50,[1],14.6 µM (active)
same,IC50,[2],21.4 µM (active)
O=C1NC(=O)N(C2CCCCCC2)C(=O)/C1=C/NC1CCN(Cc2ccccc2)CC1,EC50,[3],< 100 nM (active)
same,EC50,[4],23.5 µM (active)
same,EC50,[5],361 nM (active)
CN(C(S)=NC1CCCCC1)C1(c2ccccc2Cl)CCCCC1=O (stereo not drawn),IC50,[6],> 42 µM (not active)
same,EC50,[7],> 59.6 µM (inactive)
same,EC50,[8],> 59.6 µM (inactive)
